# In patent US20220235030A1, “SELECTIVE HISTAMINE H3 ANTAGONIST ACID ADDITION SALTS AND PROCESS FOR THE PREPARATION THEREOF” (RICHTER GEDEON NYRT., priority 2019, published 2022):
# “Also recorded” adds a separate entry of the source. Where a name gives a salt, the structure may show the parent alone. Read-outs that look alike come from different tables or passages of the source.
# What was measured:
# Type in all cases: physicochemical
# [1] = Dynamic vapor sorption (DVS) analysis at 25° C., hygroscopicity and deliquescence; parameters: Δm/ΔRH: unit not given beside the values; conditions: for Critical Relative Humidity (CRH) / relative humidity above which high, continuous weight gain (deliquescence) is observed: DVS at 25° C.; for Critical Relative Humidity (CRH): RH1 of first sorption step with Δm/ΔRH≥0.5; for Δm/ΔRH / relative humidity above which high, continuous weight gain (deliquescence) is observed: sorption; for Δm/ΔRH / relative weight change: 25° C.; for relative weight change: 95% RH
# Experimental: Determination of the critical relative humidity is feasible by gravimetric method, e.g. with DVS, where relative humidity is changed in suitably selected steps and a sufficiently long time is used to the onset of quasi-equilibrium.
# The deliquescence tendency of each salt is characterized by the critical relative humidity (CRH) value (Table 1), which was determined based on the sorption curves measured according to the measurement parameter settings below, with DVS analysis at 25° C. isotherm conditions, according to the following. […]
# If the given sorption step is Δm/ΔRH≥0.5, then RH1 is considered to be the critical relative humidity (CRH) value indicating the end point of the physical stability of the substance. The value thus determined is a good match with the onset of a significant monotonic weight gain observed visually on the sorption curve. Above the critical relative humidity value, it is the process of deliquescence of the substance that determines the weight gain observed on the sorption curve.
# [2] = Solubility in simulated gastric fluid; conditions: simulated gastric fluid (SGF without pepsin, pH=1.3)
# Excerpt: The generally observed hygroscopic nature of the 1-[4-(4-{3-[(2R)-2-methyl-pyrrolidin-1-yl]-propoxy}-phenoxy)-piperidin-1-yl]-ethanone salts is inter alia related to the good solubility thereof.
# [3] = 10-day solid stress stability study, HPLC purity test; conditions: for chemical stability (in words): 10-day solid stress: heat, heat and humidity
# Excerpt: Increased stability to ambient humidity is beneficial for longer-term physical and chemical stability of the active ingredient. The relationship between the reduced hygroscopic nature and the increased chemical stability associated with it is shown in the most preferred citrate salts in comparison to the dihydrochloride salt.
# [4] = listed as monohydrochloride Form B
# [5] = listed as monohydrochloride Form A
smiles,measurement,setting,value
"CC(=O)N1CCC(Oc2ccc(OCCCN3CCC[C@H]3C)cc2)CC1 [oxalate, 1-[4-(4-{3-[(2R)-2-methyl-pyrrolidin-1-yl]-propoxy}-phenoxy)-piperidin-1-yl]-ethanone oxalate salt]",Critical Relative Humidity (CRH),[1]; oxalate salt,not deliquescent
same,Δm/ΔRH,"[1]; RH1 0%, oxalate salt",0.0
same,Δm/ΔRH,"[1]; RH1 10%, oxalate salt",0.1
same,Δm/ΔRH,"[1]; RH1 20%, oxalate salt",0.1
same,Δm/ΔRH,"[1]; RH1 30%, oxalate salt",0.2
same,Δm/ΔRH,"[1]; RH1 40%, oxalate salt",0.1
same,Δm/ΔRH,"[1]; RH1 50%, oxalate salt",0.0
same,Δm/ΔRH,"[1]; RH1 60%, oxalate salt",0.0
same,Δm/ΔRH,"[1]; RH1 70%, oxalate salt",0.0
same,Δm/ΔRH,"[1]; RH1 80%, oxalate salt",0.1
same,deliquescence (in words),"[1]; above 90% RH, DVS 25° C., oxalate salt",does not even show deliquescence
same,relative weight gain relative to the dried weight,"[1]; sorption curve, 10-50% RH range, constant up to approx. 70% RH",about 4.7%
same,deliquescence (in words),"[1]; under the conditions of the DVS analysis, oxalate salt",not deliquescent
"CC(=O)N1CCC(Oc2ccc(OCCCN3CCC[C@H]3C)cc2)CC1 [monoHCl Form B, 1-[4-(4-{3-[(2R)-2-methyl-pyrrolidin-1-yl]-propoxy}-phenoxy)-piperidin-1-yl]-ethanone monohydrochloride salt Form B]",Critical Relative Humidity (CRH),[1],30%
same,Δm/ΔRH,[1]; RH1 0%,0.0
same,Δm/ΔRH,[1]; RH1 10%,0.0
same,Δm/ΔRH,[1]; RH1 20%,0.0
same,Δm/ΔRH,[1]; RH1 30%,0.6
same,Δm/ΔRH,[1]; RH1 40%,0.7
same,Δm/ΔRH,[1]; RH1 50%,0.4
same,Δm/ΔRH,[1]; RH1 60%,0.6
same,Δm/ΔRH,[1]; RH1 70%,0.9
same,Δm/ΔRH,[1]; RH1 80%,1.5
same,hygroscopicity (in words),[1]; [4],highly hygroscopic
same,relative weight change,[1]; sorption curve,61%
same,water bound,"[1]; sorption curve, up to 30% RH",0.3%
same,"relative humidity above which high, continuous weight gain (deliquescence) is observed",[1]; [4],above 30%
"CC(=O)N1CCC(Oc2ccc(OCCCN3CCC[C@H]3C)cc2)CC1 [monoHCl Form A, 1-[4-(4-{3-[(2R)-2-methyl-pyrrolidin-1-yl]-propoxy}-phenoxy)-piperidin-1-yl]-ethanone monohydrochloride salt Form A]",Critical Relative Humidity (CRH),[1],40%
same,Δm/ΔRH,[1]; RH1 0%,0.0
same,Δm/ΔRH,[1]; RH1 10%,0.0
same,Δm/ΔRH,[1]; RH1 20%,0.0
same,Δm/ΔRH,[1]; RH1 30%,0.3
same,Δm/ΔRH,[1]; RH1 40%,1.1
same,Δm/ΔRH,[1]; RH1 50%,0.5
same,Δm/ΔRH,[1]; RH1 60%,0.6
same,Δm/ΔRH,[1]; RH1 70%,1.1
same,Δm/ΔRH,[1]; RH1 80%,2.6
same,hygroscopicity (in words),[1]; [5],highly hygroscopic
same,relative weight change,[1]; sorption curve,97%
same,water bound,"[1]; sorption curve, up to 40% RH",about 3%
same,"relative humidity above which high, continuous weight gain (deliquescence) is observed",[1]; [5],above 40%
"CC(=O)N1CCC(Oc2ccc(OCCCN3CCC[C@H]3C)cc2)CC1 [monocitrate, 1-[4-(4-{3-[(2R)-2-methyl-pyrrolidin-1-yl]-propoxy}-phenoxy)-piperidin-1-yl]-ethanone monocitrate salt Form A]",solubility,[2],greater than 44 mM
same,chemical stability (in words),[3],stable
same,All contaminant (area %),"[3]; 10 days, 40° C., 75% RH, open glass",0.19% area %
same,All contaminant (area %),"[3]; 10 days, 50° C., 75% RH, open glass",0.19% area %
same,All contaminant (area %),"[3]; 10 days, 50° C., sealed glass",0.20% area %
same,All contaminant (area %),"[3]; 10 days, 75° C., sealed glass",0.19% area %
same,All contaminant (area %),[3]; starting sample,0.19% area %
same,hygroscopicity (in words),[1],poorly hygroscopic
same,Critical Relative Humidity (CRH),[1],not deliquescent
same,Δm/ΔRH,[1]; RH1 0%,0.0
same,Δm/ΔRH,[1]; RH1 10%,0.0
same,Δm/ΔRH,[1]; RH1 20%,0.2
same,Δm/ΔRH,[1]; RH1 30%,0.1
same,Δm/ΔRH,[1]; RH1 40%,0.0
same,Δm/ΔRH,[1]; RH1 50%,0.0
same,Δm/ΔRH,[1]; RH1 60%,0.0
same,Δm/ΔRH,[1]; RH1 70%,0.0
same,Δm/ΔRH,[1]; RH1 80%,0.0
same,deliquescence (in words),"[1]; above 90% RH, DVS 25° C.",did not show deliquescence
same,relative humidity at which monohydrate Form A converts to anhydrate Form B,[1]; during desorption,below 10 % RH
same,deliquescence (in words),[1]; under the conditions of the DVS analysis,not deliquescent
same,deliquescence (in words),"[1]; under the conditions of the DVS analysis, listed as Monocitrate",do not show deliquescence
"CC(=O)N1CCC(Oc2ccc(OCCCN3CCC[C@H]3C)cc2)CC1 [diHBr, 1-[4-(4-{3-[(2R)-2-methyl-pyrrolidin-1-yl]-propoxy}-phenoxy)-piperidin-1-yl]-ethanone dihydrobromide salt]",Critical Relative Humidity (CRH),[1]; dihydrobromide salt,70%
same,Δm/ΔRH,"[1]; RH1 0%, dihydrobromide salt",0.0
same,Δm/ΔRH,"[1]; RH1 10%, dihydrobromide salt",0.0
same,Δm/ΔRH,"[1]; RH1 20%, dihydrobromide salt",0.0
same,Δm/ΔRH,"[1]; RH1 30%, dihydrobromide salt",0.0
same,Δm/ΔRH,"[1]; RH1 40%, dihydrobromide salt",0.1
same,Δm/ΔRH,"[1]; RH1 50%, dihydrobromide salt",0.1
same,Δm/ΔRH,"[1]; RH1 60%, dihydrobromide salt",0.3
same,Δm/ΔRH,"[1]; RH1 70%, dihydrobromide salt",3.1
same,Δm/ΔRH,"[1]; RH1 80%, dihydrobromide salt",3.3
same,relative weight change,"[1]; sorption curve, dihydrobromide salt",90%
same,moisture absorbed,"[1]; sorption curve, up to 70% RH",about 6%
"CC(=O)N1CCC(Oc2ccc(OCCCN3CCC[C@H]3C)cc2)CC1 [dicitrate, 1-[4-(4-{3-[(2R)-2-methyl-pyrrolidin-1-yl]-propoxy}-phenoxy)-piperidin-1-yl]-ethanone dicitrate salt]",solubility,[2]; dicitrate salt,469 mM
same,chemical stability (in words),[3]; dicitrate salt,stable
same,All contaminant (area %),"[3]; 10 days, 40° C., 75% RH, open glass, dicitrate salt",0.24% area %
same,All contaminant (area %),"[3]; 10 days, 50° C., 75% RH, open glass, dicitrate salt",0.25% area %
same,All contaminant (area %),"[3]; 10 days, 50° C., sealed glass, dicitrate salt",0.23% area %
same,All contaminant (area %),"[3]; 10 days, 75° C., sealed glass, dicitrate salt",0.24% area %
same,All contaminant (area %),"[3]; starting sample, dicitrate salt",0.23% area %
same,Critical Relative Humidity (CRH),[1]; dicitrate salt,not deliquescent
same,Δm/ΔRH,"[1]; RH1 0%, dicitrate salt",0.0
same,Δm/ΔRH,"[1]; RH1 10%, dicitrate salt",0.0
same,Δm/ΔRH,"[1]; RH1 20%, dicitrate salt",0.0
same,Δm/ΔRH,"[1]; RH1 30%, dicitrate salt",0.0
same,Δm/ΔRH,"[1]; RH1 40%, dicitrate salt",0.0
same,Δm/ΔRH,"[1]; RH1 50%, dicitrate salt",0.0
same,Δm/ΔRH,"[1]; RH1 60%, dicitrate salt",0.0
same,Δm/ΔRH,"[1]; RH1 70%, dicitrate salt",0.0
same,Δm/ΔRH,"[1]; RH1 80%, dicitrate salt",0.1
same,deliquescence (in words),"[1]; above 90% RH, DVS 25° C., dicitrate salt",does not show deliquescence
same,hygroscopicity (in words),[1]; dicitrate salt,poorly hygroscopic
same,water bound,"[1]; sorption curve, up to 80% RH, dicitrate salt",3.2%
same,water bound,"[1]; sorption curve, up to 90% RH",6.8%
same,deliquescence (in words),"[1]; under the conditions of the DVS analysis, dicitrate salt",do not show deliquescence; also recorded: not deliquescent
"CC(=O)N1CCC(Oc2ccc(OCCCN3CCC[C@H]3C)cc2)CC1 [sulfate, 1-[4-(4-{3-[(2R)-2-methyl-pyrrolidin-1-yl]-propoxy}-phenoxy)-piperidin-1-yl]-ethanone sulfate salt]",Critical Relative Humidity (CRH),[1]; sulfate salt,80%
same,Δm/ΔRH,"[1]; RH1 0%, sulfate salt",0.4
same,Δm/ΔRH,"[1]; RH1 10%, sulfate salt",0.0
same,Δm/ΔRH,"[1]; RH1 20%, sulfate salt",0.0
same,Δm/ΔRH,"[1]; RH1 30%, sulfate salt",0.0
same,Δm/ΔRH,"[1]; RH1 40%, sulfate salt",0.0
same,Δm/ΔRH,"[1]; RH1 50%, sulfate salt",0.0
same,Δm/ΔRH,"[1]; RH1 60%, sulfate salt",0.0
same,Δm/ΔRH,"[1]; RH1 70%, sulfate salt",0.1
same,Δm/ΔRH,"[1]; RH1 80%, sulfate salt",1.6
same,relative weight change,"[1]; sorption curve, sulfate salt",53%
same,water bound,"[1]; sorption curve, up to 80% RH, sulfate salt",about 5%
